Experiment: confirmation of dissolution of the pentacene derivative in the solvent
Assay type: physicochemical
Method: Herein, all samples are compositions containing no test compound and including the pentacene derivative and/or the salt thereof and the solvent.
6,13-Diphenylpentacene (0.4 mg, produced by Sigma-Aldrich Co., Ltd.) represented by the following formula was prepared as the pentacene derivative represented by formula (A), and dissolved in a mixed liquid of water and deuterated ethanol (2 mL, pure water:ethanol=1:9% by mass) as the solvent, thereby preparing a sample.
6,13-Diphenylpentacene (0.5 mg) represented by the above formula, as the pentacene derivative represented by formula (A), was dissolved in a mixed liquid of benzene and polystyrene (1 mL, benzene:polystyrene=5:5% by mass) as the solvent, thereby preparing a sample.
(§1) 6,13-Diphenylpentacene (0.5 mg) represented by the above formula, as the pentacene derivative represented by formula (A), was dissolved in a mixed liquid of benzene and deuterated toluene (1 mL, benzene:deuterated toluene=1:9% by mass) as the solvent, thereby preparing a sample.
as §1, with “6,13-Dibiphenylpentacene (0.4 mg, produced by Luminescence Technology Crop.)” for “6,13-Diphenylpentacene (0.5 mg)”, “following” for “above”, “(2” for “(1”
(§2) 6,13-Bis[(triethylsilyl)ethynyl]pentacene (0.4 mg, produced by Sigma-Aldrich Co., Ltd.) represented by the following formula, as the pentacene derivative represented by formula (A), was dissolved in a mixed liquid of benzene and polystyrene (2 mL, benzene:polystyrene=5:5% by mass) as the solvent, thereby preparing a sample.
as §2, with “6,13-Bis[(triisopropylsilyl)ethynyl]pentacene” for “6,13-Bis[(triethylsilyl)ethynyl]pentacene”, “Tokyo Chemical Industry” for “Sigma-Aldrich”
Pentacene (0.4 mg, produced by Sigma-Aldrich Co., Ltd.) represented by the following formula, and a mixed liquid of benzene and deuterated toluene (2 mL, benzene:deuterated toluene=1:9% by mass) as the solvent were mixed, thereby preparing a composition for NMR measurement.

[1] = 0.4 mg in 2 mL mixed liquid of benzene and polystyrene (5:5 by mass)
[2] = 0.4 mg in 2 mL mixed liquid of benzene and deuterated toluene (1:9 by mass)

| Structure (SMILES) | dissolution in the solvent [1] | dissolution in the solvent [2] | further results |
| --- | --- | --- | --- |
| CC(C)[Si](C#Cc1c2cc3ccccc3cc2c(C#C[Si](C(C)C)(C(C)C)C(C)C)c2cc3ccccc3cc12)(C(C)C)C(C)C [6,13-bis[(triisopropylsilyl)ethynyl]pentacene] | completely dissolved |  |  |
| c1ccc2cc3cc4cc5ccccc5cc4cc3cc2c1 [pentacene, Pentacene] |  | not almost dissolved |  |
| c1ccc(-c2ccc(-c3c4cc5ccccc5cc4c(-c4ccc(-c5ccccc5)cc4)c4cc5ccccc5cc34)cc2)cc1 [6,13-dibiphenylpentacene] |  | completely dissolved |  |
| c1ccc(-c2c3cc4ccccc4cc3c(-c3ccccc3)c3cc4ccccc4cc23)cc1 [6,13-diphenylpentacene] |  |  | dissolution in the solvent (0.4 mg in 2 mL mixed liquid of water and deuterated ethanol (1:9 by mass)): completely dissolved; dissolution in the solvent (0.5 mg in 1 mL mixed liquid of benzene and deuterated toluene (1:9 by mass)): completely dissolved; dissolution in the solvent (0.5 mg in 1 mL mixed liquid of benzene and polystyrene (5:5 by mass)): completely dissolved |
| CC[Si](C#Cc1c2cc3ccccc3cc2c(C#C[Si](CC)(CC)CC)c2cc3ccccc3cc12)(CC)CC [6,13-bis[(triethylsilyl)ethynyl]pentacene] | completely dissolved |  |  |

— patent US20180188338A1, “Nuclear Spin Polarization Enhancing Method Through Dynamic Nuclear Polarization by Using Soluble Pentacene” (RIKEN, priority 2015, published 2018)
